Reference: ChEMBL document CHEMBL1151928, “Identification of Hsp70 modulators through modeling of the substrate binding domain” (Bioorg Med Chem Lett, 2009)
The source made the active and inactive calls. The calls are words filed in the database; no cut-off is given here.

Assays:
[1] = test system: Hsp70 Ssa1p; assay: Activation of yeast Hsp70 Ssa1p ATP hydrolysis activity at 300 uM; settings: Saccharomyces cerevisiae
[2] = test system: Hsp70 Ssa1p; assay: Activation of yeast Hsp70 Ssa1p ATP hydrolysis activity at 300 uM in presence of ALLLSAPRR peptide; settings: Saccharomyces cerevisiae

`CCOCCCN(C(C)=O)[C@@H](CC(C)C)C(=O)N[C@@H](CC(C)C)C(=O)NCCN1CCOCC1` was tested, and the Activity [1] was “Active” and the Activity [2] was “Active”.
